Values quoted from earlier work as cited in patent US11413229B2, “Oral plaque dispersion agent” (KAO CORPORATION, priority 2016, dated 2022).

Details: at 20° C.

solubility to water: 60 g/100 mL
Compound: CC(CO)(CO)CO [Trimethylolethane, 1,1,1-tris(hydroxymethyl)ethane]
